Assay results: article PMC12800093 (Nature Communications, 2025)
Where a SMILES comes first, the peptide text is derived from it. [ ]: non-standard residue; d: D form.

System: Mycobacterium tuberculosis complex (MTBC) clinical isolates
Settings: 96 h

## CC(C)[C@@H](NC(=O)[C@H](N)Cc1c[nH]c2ccccc12)C(=O)N[C@@H](C(=O)N[C@H](Cc1c[nH]c2ccccc12)C(=O)N[C@H](Cc1c[nH]cn1)C(=O)N[C@H](CCCNC(=N)N)C(=O)N[C@H](CCCNC(=N)N)C(=O)N[C@H](Cc1c[nH]c2ccccc12)C(=O)N[C@H](Cc1c[nH]c2ccccc12)C(=O)N[C@H](Cc1c[nH]cn1)C(=O)N[C@H](Cc1c[nH]c2ccccc12)C(=O)N[C@H](CCCNC(=N)N)C(=O)N[C@H](CCCCN)C(N)=O)C(C)C [MAD1-RI] (H-[dW][dV][dV][dW][dH][dR][dR][dW][dW][dH][dW][dR][dK]-NH2)
  MICs against a panel of drug-resistant clinical Mtb isolates: ≤ 40 µM
